Legend:
Puccinia recondita = assay: Fungicidal activity against wheat leaf rust (WLR) disease; format: in vivo; details: for C. V. (%), Fungicidal Activities against WLB at 10 ppm: Table 8 (Test Example 5); for C. V. (%) WLR: 50 ppm, control value, wheat leaf rust
[1] = test system: Pyricularia oryzae Carvara KA301; format: in vivo; details: for C. V. (%) RCB: 50 ppm, control value, rice blast; for C. V. (%) Fungicidal Activities against RCB at 10 ppm / C. V. (%) Fungicidal Activities against RCB at 10 ppm (TABLE 6): sprayed on Nakdong rice plant, control value from lesion area
Rhizoctonia solani AG-1 = assay: Fungicidal activity against rice sheath blight (RSB) disease; details: 50 ppm, control value
Procedure: 50 ml of the resulting solution was sprayed on leaves of a host plant. The plant was kept at room temperature for 24 hours to let the solvent evaporate, and then, a pathogenic fungus was inoculated thereonto. The plant was held in a humidity chamber for 24 hours, transferred to an plant growth room kept at 20 to 27° C. and a relative humidity of 60 to 80% and kept to induce disease. Subsequently, the lesion area(L.A.) attacked by the pathogenic fungus was measured according to a method of Cho(Cho, K. Y., Search Report by Korea Research Institute of Chemical Technology (1989))”. This procedure was repeated twice for each test. 10% Acetone solution containing 250 ppm of Tween-20 was used as a control.
The fungicidal activity of the compound of the present invention is repressed by a control value (C.V.) calculated as; [formula]
Rhizoctonia solani AG-1 was cultured on a PDA medium(potato 200 g, dextrose 20 g, agar 20 g and distilled water 1 l) for 3 days and the agar disc (diameter 0.6 cm) was inoculated and cultured on sterilized wheat bran medium in a 1 l bottle at 26 to 28° C. for 7 days. A mycelial mass was ground using a homogenizer, inoculated uniformly on soil of a pot wherein a Nakdong rice plant having 2 or 3 leaves and an height of 5 cm grew, and kept in humidity polyvinyl chamber for 5 days to induce RSB. L.A. on a leaf sheath was measured to calculate an C.V.

Phytophthora infestans = format: in vivo; details: 50 ppm; control value, tomato late blight
Botrytis cinerae = assay: Fungicidal activity against cucumber gray mold rot (CGM) disease; format: in vivo; details: 50 ppm, control value
Erysiphae graminis = assay: Fungicidal activity against barley powdery mildew (BPM) disease; format: in vivo; details: for C. V. (%), Fungicidal activities against TLB at 10 ppm: Table 9 (Test Example 6); for C. V. (%) BPM: 50 ppm, control value, barley powdery mildew

Compound: CO/N=C(/C(=O)OC)c1ccccc1COc1cccc(OC(F)=C(c2ccc(C)c(C)c2)C(F)(F)F)c1 [Compound 65]
- C. V. (%), Fungicidal Activities against WLB at 10 ppm (Puccinia recondita): 100%
- C. V. (%) WLR (Puccinia recondita): 99%
- C. V. (%) RCB [1]: 91%
- C. V. (%) RSB (Rhizoctonia solani AG-1): 90%
- C. V. (%) TLB (Phytophthora infestans): 33%
- C. V. (%) CGM (Botrytis cinerae): 16%
- C. V. (%), Fungicidal activities against TLB at 10 ppm (Erysiphae graminis): 94%
- C. V. (%) BPM (Erysiphae graminis): 99%

Compound: COC=C(C(=O)OC)c1ccccc1COc1cccc(OC(F)=Cc2cccc(F)c2)c1 [Compound 34]
- C. V. (%), Fungicidal Activities against WLB at 10 ppm (Puccinia recondita): 100%
- C. V. (%) WLR (Puccinia recondita): 98%
- C. V. (%) Fungicidal Activities against RCB at 10 ppm [1]: 100%
- C. V. (%) Fungicidal Activities against RCB at 10 ppm (TABLE 6) [1]: 100%
- C. V. (%) RCB [1]: 99%
- C. V. (%) RSB (Rhizoctonia solani AG-1): 95%
- C. V. (%) TLB (Phytophthora infestans): 75%
- C. V. (%) CGM (Botrytis cinerae): 0%
- C. V. (%), Fungicidal activities against TLB at 10 ppm (Erysiphae graminis): 100%
- C. V. (%) BPM (Erysiphae graminis): 100%

Compound: CNC(=O)C(=COC)c1ccccc1COc1cccc(OC(F)=C(c2cccc(Cl)c2)C(F)(F)F)c1 [Compound 85]
- C. V. (%) WLR (Puccinia recondita): 73%
- C. V. (%) RCB [1]: 16%
- C. V. (%) RSB (Rhizoctonia solani AG-1): 10%
- C. V. (%) TLB (Phytophthora infestans): 22%
- C. V. (%) CGM (Botrytis cinerae): 16%
- C. V. (%) BPM (Erysiphae graminis): 0%

Compound: CO/C=C(/C(=O)OC)c1ccccc1COc1cccc(OC(F)=C(c2ccccc2)C(F)(F)F)c1 [Compound 45, methyl (2E)-3-methoxy-2-{2′-{3′-(2′″-fluoro-1′″-trifluoromethylstyryl)-2′″-oxy}phenoxymethyl}phenyl-2-propenoate]
- C. V. (%), Fungicidal Activities against WLB at 10 ppm (Puccinia recondita): 100%
- C. V. (%) WLR (Puccinia recondita): 100%
- C. V. (%) Fungicidal Activities against RCB at 10 ppm [1]: 90%
- C. V. (%) Fungicidal Activities against RCB at 10 ppm (TABLE 6) [1]: 90%
- C. V. (%) RCB [1]: 90%
- C. V. (%) RSB (Rhizoctonia solani AG-1): 94%
- C. V. (%) TLB (Phytophthora infestans): 0%
- C. V. (%) CGM (Botrytis cinerae): 0%
- C. V. (%), Fungicidal activities against TLB at 10 ppm (Erysiphae graminis): 100%
- C. V. (%) BPM (Erysiphae graminis): 100%

Compound: COC(=O)C(=CSC)c1ccccc1COc1cccc(OC(F)=Cc2cccc(C)c2)c1 [Compound 9]
- C. V. (%) WLR (Puccinia recondita): 88%
- C. V. (%) RCB [1]: 96%
- C. V. (%) RSB (Rhizoctonia solani AG-1): 92%
- C. V. (%) TLB (Phytophthora infestans): 26%
- C. V. (%) CGM (Botrytis cinerae): 33%
- C. V. (%) BPM (Erysiphae graminis): 95%

Compound: CCCCCCC(=C(F)Oc1cccc(OCc2ccccc2C(=COC)C(=O)NC)c1)C(F)(F)F [Compound 107]
- C. V. (%) WLR (Puccinia recondita): 80%
- C. V. (%) RCB [1]: 0%
- C. V. (%) RSB (Rhizoctonia solani AG-1): 10%
- C. V. (%) TLB (Phytophthora infestans): 3%
- C. V. (%) CGM (Botrytis cinerae): 21%
- C. V. (%) BPM (Erysiphae graminis): 41%

Compound: COC(=O)C(=CSC)c1ccccc1COc1cccc(OC(F)=Cc2cc(C)c(C)cc2C)c1 [Compound 24]
- C. V. (%) WLR (Puccinia recondita): 98%
- C. V. (%) RCB [1]: 62%
- C. V. (%) RSB (Rhizoctonia solani AG-1): 46%
- C. V. (%) TLB (Phytophthora infestans): 18%
- C. V. (%) CGM (Botrytis cinerae): 27%
- C. V. (%) BPM (Erysiphae graminis): 96%

— patent publication US6444850B1, “Fungicidial compounds having a fluorovinyloxphyenyl moiety and process for the preparation thereof” (priority 1997, dated 2002)
